For 34 compounds, IC50 results are on record in patent US10961238B2, “Modulators of hedgehog (Hh) signaling pathway” (E-THERAPEUTICS PLC, priority 2016, dated 2021).

SMILES strings stand for the structures.

The subject of one assay is C3H10T1/2 cells. Kind of assay: C3H assay: differentiation of C3H10T1/2 cells by mSHH, measurement of alkaline phosphatase. Conditions: Mus musculus, C3H 10T1/2, 72 h, read-out: IC50 Ranges. The format is cell-based, mouse.
The IC50 is the point on the concentration scale where inhibition reaches its midpoint. Turning to `O=C(OCCC1CCOCC1)N1CC(S(=O)(=O)N2CCC(c3c[nH]c4ncccc34)CC2)C1` [Compound 60, 2-Tetrahydropyran-4-ylethyl 3-[[4-(1H-pyrrolo[2,3-b]pyridin-3-yl)-1-piperidyl]sulfonyl]azetidine-1-carboxylate], the IC50 lay within 10 to 100 nM.

The assay is the same for the next values; noted with them: Mus musculus, C3H 10T1/2; C3H10T1/2 cells stimulated with mSHH for 72 hours; alkaline phosphatase activity; read-out: IC50 Ranges.
As to `COc1cccc(NC(=O)N2CC(S(=O)(=O)N3CCC(c4ccncc4)CC3)C2)c1` [Compound 281, N-(3-methoxyphenyl)-3-(4-pyridin-4-ylpiperidin-1-yl)sulfonylaze-tidine-1-carboxamide], the IC50 is 1000 to 10000 nM.
Same read-out and setting: the result for `O=C(OCCN1CCCCC1)N1CC(S(=O)(=O)N2CCC(c3c[nH]c4ncccc34)CC2)C1` [Compound 59, 2-piperidin-1-ylethyl 3-[4-(1H-pyrrolo [2,3-b]pyridin-3-yl)piperidin-1-yl]sulfonylaze-tidine-1-carboxylate] reads 10 to 100 nM; that for `Cc1ccc(F)cc1NC(=O)N1CC(S(=O)(=O)N2CCC(c3c[nH]c4ncccc34)CC2)C1` [Compound 277, N-(5-fluoro-2-methylphenyl)-3-[4-(1H-pyrrolo[2,3-b]pyridin-3-yl)piperidin-1-yl]sulfonylaze-tidine-1-carboxamide], 10 to 100 nM.
The same measure, in the same setting: the result for `O=C(OC[C@@H]1CCCO1)N1CC(S(=O)(=O)N2CCC(c3c[nH]c4ncccc34)CC2)C1` [Compound 163, [(2S)-oxolan-2-yl]methyl 3-[4-(1H-pyrrolo[2,3-b]pyridin-3-yl)piperidin-1-yl]sulfonylaze-tidine-1-carboxylate] reads 10 to 100 nM.
Still for that read-out and setting: the result for `CC(C)N(CC(=O)N1CC(S(=O)(=O)N2CCC(c3ccc(C#N)cc3)CC2)C1)C(C)C` [Compound 324, 4-[1-[1-[2-[di(propan-2-yl)amino]acetyl]azetidin-3-yl]sulfonylpiper-idin-4-yl]benzonitrile] reads 10 to 100 nM; that for `Cc1cc(Cl)ccc1C1CCN(S(=O)(=O)C2CN(C(=O)[C@@H]3CCCN3C)C2)CC1` [Compound 318, [3-[4-(4-chloro-2-methylphenyl)piperidin-1-yl]sulfonylaze-tidin-1-yl]-[(2S)-1-methylpyrrolidin-2-yl]methanone], 1000 to 10000 nM.
Consider `COC(=O)c1cnc(N2CC(S(=O)(=O)N3CCC(c4c[nH]c5ncccc45)CC3)C2)o1` [Compound 142, methyl 2-[3-[4-(1H-pyrrolo [2,3-b]pyridin-3-yl)piperidin-1-yl]sulfonylaze-tidin-1-yl]-1,3-oxazole-5-carboxylate], for which the IC50 fell in the range of 100 to 1000 nM.
The same measure, in the same setting: the result for `O=C(OC1CCOCC1)N1CC(S(=O)(=O)N2CCC(c3c[nH]c4ncccc34)CC2)C1` [Compound 218, oxan-4-yl 3-[4-(1H-pyrrolo[2,3-b]pyridin-3-yl)piperidin-1-yl]sulfonylaze-tidine-1-carboxylate] reads 10 to 100 nM; that for `O=C(OCCCN1CCCCC1)N1CC(S(=O)(=O)N2CCC(c3c[nH]c4ncccc34)CC2)C1` [Compound 58, 3-piperidin-1-ylpropyl 3-[4-(1H-pyrrolo[2,3-b]pyridin-3-yl)piperidin-1-yl]sulfonylaze-tidine-1-carboxylate], 100 to 1000 nM.
Same read-out and setting: the result for `Cc1ccc(S(=O)(=O)n2cc(C3=CCN(S(=O)(=O)C4CCN(C(=O)OC(C)(C)C)CC4)CC3)c3cncnc32)cc1` [Compound 235, tert-butyl 4-[[4-[7-(4-methylphenyl)sulfonylpyrrolo[2,3-d]pyrimidin-5-yl]-3,6-dihydro-2H-pyridin-1-yl]sulfonyl] piperidine-1-carboxylate] reads 100 to 1000 nM; that for `O=C(c1ccncc1)N1CC(S(=O)(=O)N2CCC(c3c[nH]c4ncccc34)CC2)C1` [Compound 72, pyridin-4-yl-[3-[4-(1H-pyrrolo[2,3-b]pyridin-3-yl)piperidin-1-yl]sulfonylaze-tidin-1-yl]methanone], 1000 to 10000 nM.
For `CC(C)(C)OC(=O)N[C@H]1C[C@H](S(=O)(=O)N2CCC(c3c[nH]c4ncccc34)CC2)C1` [Compound 357, trans-tert-butyl-N-[3-[[4-(1H-pyrrolo[2,3-b]pyridin-3-yl)-1-piperidyl]sulfonyl]cyclobutyl]carbamate], the IC50 lay in the range of 10 to 100 nM.
The same measure, in the same setting: the figure for `O=C(Oc1ccccc1)N1CCC(S(=O)(=O)N2CCC(c3ccncc3)CC2)CC1` [Compound 114, phenyl 4-(4-pyridin-4-ylpiperidin-1-yl)sulfonylpiper-idine-1-carboxylate] is 1000 to 10000 nM.
Still for that read-out and setting: the result for `CCN(CC)C(=O)N1CC(S(=O)(=O)N2CCC(c3c[nH]c4ncccc34)CC2)C1` [Compound 82, N,N-diethyl-3-[4-(1H-pyrrolo[2,3-b]pyridin-3-yl)piperidin-1-yl]sulfonylaze-tidine-1-carboxamide] reads 100 to 1000 nM; that for `COc1cccc(OC(=O)N2CC(S(=O)(=O)N3CCC(c4c[nH]c5ncccc45)CC3)C2)c1` [Compound 215, (3-methoxyphenyl) 3-[4-(1H-pyrrolo[2,3-b]pyridin-3-yl)piperidin-1-yl]sulfonylaze-tidine-1-carboxylate], 10 to 100 nM; that for `O=C(OCc1ccccc1)N1CC(S(=O)(=O)N2CCC(c3c[nH]c4ncccc34)CC2)C1` [Compound 76, benzyl 3-[4-(1H-pyrrolo[2,3-b]pyridin-3-yl)piperidin-1-yl]sulfonylaze-tidine-1-carboxylate], 10 to 100 nM.
Still for that read-out and setting: the result for `Cc1[nH]c2ncccc2c1C1CCN(S(=O)(=O)C2CN(C(=O)OC(C)(C)C)C2)CC1` [Compound 224] reads 1000 to 10000 nM; that for `CC(C)N(CC(=O)N1CC(S(=O)(=O)N2CCC(c3ccc(F)cc3)CC2)C1)C(C)C` [Compound 343, 2-[di(propan-2-yl)amino]-1-[3-[4-(4-fluorophenyl)piperidin-1-yl]sulfonylaze-tidin-l-yl]ethanone], 100 to 1000 nM; that for `O=C(NCc1cocn1)N1CC(S(=O)(=O)N2CCC(c3c[nH]c4ncccc34)CC2)C1` [Compound 78, N-(1,3-oxazol-4-ylmethyl)-3-[4-(1H-pyrrolo[2,3-b]pyridin-3-yl)piperidin-1-yl]sulfonylaze-tidine-1-carboxamide], 100 to 1000 nM.
Take `CC(C)(C)c1ccc(C(=O)N2CC(S(=O)(=O)N3CCC(c4c[nH]c5ncccc45)CC3)C2)cc1` [Compound 74, (4-tert-butylphenyl)-[3-[4-(1H-pyrrolo[2,3-b]pyridin-3-yl)piperidin-1-yl]sulfonylaze-tidin-1-yl]methanone]: the IC50 is 1000 to 10000 nM.
Still for that read-out and setting: the figure for `O=C(NC1(C(F)(F)F)CC1)N1CC(S(=O)(=O)N2CCC(c3ccncc3)CC2)C1` [Compound 265, 3-(4-pyridin-4-ylpiperidin-1-yl)sulfonyl-N-[1-(trifluoromethyl)-cyclopropyl] azetidine-1-carboxamide] is 100 to 1000 nM; for `O=S(=O)(C1CCN(c2ccccn2)C1)N1CCC(c2c[nH]c3ncccc23)CC1` (racemic) [Compound 244, 3-[1-(1-pyridin-2-ylpyrrolidin-3-yl)sulfonylpiper-idin-4-yl]-1H-pyrrolo[2,3-b]pyridine] it is 100 to 1000 nM; for `CC(C)(C)NC(=O)N1CC(S(=O)(=O)N2CCC(c3coc4cccnc34)CC2)C1` [Compound 370, N-tert-butyl-3-(4-furo[3,2-b]pyridin-3-ylpiperidin-1-yl)sulfonylaze-tidine-1-carboxamide] it is 10 to 100 nM.
Same read-out and setting: the result for `CC(C)(C)OC(=O)N1CCC(S(=O)(=O)N2CCC(c3coc4cccnc34)CC2)CC1` [Compound 132, tert-butyl 4-(4-furo[3,2-b]pyridin-3-ylpiperidin-1-yl)sulfonylpiper-idine-1-carboxylate] reads 100 to 1000 nM.
Same read-out and setting: the result for `Cc1noc(C)c1C(=O)N1CC(S(=O)(=O)N2CCC(c3ccccc3)CC2)C1` [Compound 316, (3,5-dimethyl-1,2-oxazol-4-yl)-[3-(4-phenylpiperidin-1-yl)sulfonylaze-tidin-1-yl]methanone] reads 1000 to 10000 nM.
Turning to `O=C(Nc1cc(F)ccc1Cl)N1CC(S(=O)(=O)N2CCC(c3c[nH]c4ncccc34)CC2)C1` [Compound 385, N-(2-chloro-5-fluorophenyl)-3-[4-(1H-pyrrolo[2,3-b]pyridin-3-yl)piperidin-1-yl]sulfonylaze-tidine-1-carboxamide], the IC50 is 10 to 100 nM.
On the same count and under the same terms, the figure for `CC(C)(C)OC(=O)N1CCC(OC(=O)N2CC(S(=O)(=O)N3CCC(c4c[nH]c5ncccc45)CC3)C2)CC1` [Compound 211, tert-butyl 4-[3-[4-(1H-pyrrolo[2,3-b]pyridin-3-yl)piperidin-1-yl]sulfonylaze-tidine-1-carbonyl] oxypiperidine-1-carboxylate] is 10 to 100 nM.
On the same count and under the same terms, the figure for `CN(C)CC1(CN2CC(S(=O)(=O)N3CCC(c4c[nH]c5ncccc45)CC3)C2)CCCC1` [Compound 247, N,N-dimethyl-1-[1-[[3-[4-(1H-pyrrolo[2,3-b]pyridin-3-yl)piperidin-1-yl]sulfonylaze-tidin-1-yl]methyl]cyclopentyl] methanamine] is 1000 to 10000 nM.
Still for that read-out and setting: the result for `O=S(=O)(C1CN(c2ccccn2)C1)N1CCC(c2ccncc2)CC1` [Compound 268, 2-[3-(4-pyridin-4-ylpiperidin-1-yl)sulfonylaze-tidin-1-yl]pyridine] reads 1000 to 10000 nM; that for `CN(C)CC(C)(C)OC(=O)N1CC(S(=O)(=O)N2CCC(c3c[nH]c4ncccc34)CC2)C1` [Compound 50, [1-(dimethylamino)-2-methylpropan-2-yl] 3-[4-(1H-pyrrolo[2,3-b]pyridin-3-yl)piperidin-1-yl]sulfonylaze-tidine-1-carboxylate], 10 to 100 nM; that for `CC(C)(C)OC(=O)N1CC(S(=O)(=O)N2CCC(c3cnc4ccccn34)CC2)C1` [Compound 100, tert-butyl 3-(4-imidazo[1,2-a]pyridin-3-ylpiperidin-1-yl)sulfonylaze-tidine-1-carboxylate], 100 to 1000 nM.
For the compound `COC1CCC(OC(=O)N2CC(S(=O)(=O)N3CCC(c4c[nH]c5ncccc45)CC3)C2)CC1` (stereo not shown) [Compound 180, (4-methoxycyclohexyl) 3-[4-(1H-pyrrolo[2,3-b]pyridin-3-yl)piperidin-1-yl]sulfonylaze-tidine-1-carboxylate], the IC50 was 10 to 100 nM.

Staying with this assay, now noted: Mus musculus, C3H 10T1/2; reference compounds run in the C3H assay; read-out: mean IC50.
With `Cc1c(C(=O)Nc2ccc(N3C[C@@H](C)O[C@@H](C)C3)nc2)cccc1-c1ccc(OC(F)(F)F)cc1` [Sonidegib, reference compound], the IC50 was 11 nM.
